Legend:
Hepatitis C virus [1] = assay: Inhibition of HCV1b Cdelta-21-truncated NS5B by enzymatic assay; type: functional, Hepatitis C virus subtype 1b
Hepatitis C virus [2] = assay: Antiviral activity against HCV 1b after 72 hrs by replicon assay; type: functional, organism-based, Hepacivirus hominis; details: genotype 1b
Hepatitis C virus [3] = assay: Antiviral activity against HCV 1b after 72 hrs by replicon assay in presence of HSA and AAG; type: functional, organism-based, Hepacivirus hominis; details: genotype 1b
Cytochrome P450 2C9 = Cytochrome P450 2C9 (Homo sapiens, UniProt P11712); assay: Inhibition of CYP2C9; type: ADME
Chain of Cytochrome P450 2C9 (P11712 whole entry): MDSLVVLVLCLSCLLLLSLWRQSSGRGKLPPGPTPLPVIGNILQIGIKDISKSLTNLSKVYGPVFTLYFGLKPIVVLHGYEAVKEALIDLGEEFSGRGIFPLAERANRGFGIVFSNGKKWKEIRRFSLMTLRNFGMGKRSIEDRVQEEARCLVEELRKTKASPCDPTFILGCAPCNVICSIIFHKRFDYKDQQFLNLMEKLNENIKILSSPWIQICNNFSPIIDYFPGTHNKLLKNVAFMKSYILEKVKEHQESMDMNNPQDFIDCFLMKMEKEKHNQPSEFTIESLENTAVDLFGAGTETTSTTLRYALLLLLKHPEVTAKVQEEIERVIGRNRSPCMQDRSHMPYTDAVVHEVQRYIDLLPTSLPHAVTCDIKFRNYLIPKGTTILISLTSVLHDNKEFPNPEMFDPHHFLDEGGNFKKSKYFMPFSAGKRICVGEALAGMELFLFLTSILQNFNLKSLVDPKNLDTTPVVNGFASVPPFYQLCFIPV

[4] = Half life in rat at 4 mg/kg, po and 4 mg/kg, iv; type: ADME, organism-based; details: in vivo
Homo sapiens = organism: Homo sapiens; assay: Protein binding in human plasma by equilibrium dialysis; details: read-out: PPB (converted)
[5] = Bioavailability in rat at 4 mg/kg, po and 4 mg/kg, iv; type: ADME, organism-based; details: in vivo

COC(=O)c1ccc2c(c1)S(=O)(=O)N=C(c1c(O)c3ccccc3n(CCC(C)C)c1=O)N2
IC50 (Hepatitis C virus [1]): 65 nM | IC50 (Hepatitis C virus [2]): 2620 nM

CC(C)CCn1c(=O)c(C2=NS(=O)(=O)c3cc(Br)ccc3N2)c(O)c2ccccc21
IC50 (Hepatitis C virus [1]): 173 nM | IC50 (Hepatitis C virus [2]): 5140 nM

O=c1c(C2=NS(=O)(=O)c3cc(OCn4cnnn4)ccc3N2)c(O)c2cc(F)ccc2n1CCC1CC1
IC50 (Hepatitis C virus [1]): 6 nM | IC50 (Hepatitis C virus [2]): 2000 nM

CC(C)CCn1c(=O)c(C2=NS(=O)(=O)c3cc([N+](=O)[O-])ccc3N2)c(O)c2ccccc21
IC50 (Hepatitis C virus [1]): 238 nM | IC50 (Hepatitis C virus [2]): > 20000 nM

CC(C)(Oc1ccc2c(c1)S(=O)(=O)N=C(c1c(O)c3cc(F)ccc3n(CCC3CC3)c1=O)N2)C(N)=O
IC50 (Hepatitis C virus [1]): 9 nM | IC50 (Hepatitis C virus [2]): 272 nM | IC50 (Hepatitis C virus [3]): 5360 nM

O=c1c(C2=NS(=O)(=O)c3cc(O)ccc3N2)c(O)c2cc(F)ccc2n1CCC1CC1
IC50 (Hepatitis C virus [1]): < 5 nM | IC50 (Hepatitis C virus [2]): 57 nM | IC50 (Hepatitis C virus [3]): 50000 nM

C[C@@H](Oc1ccc2c(c1)S(=O)(=O)N=C(c1c(O)c3cc(F)ccc3n(CCC3CC3)c1=O)N2)C(N)=O
IC50 (Cytochrome P450 2C9): 1700 nM | half-life [4]: 0.7 h | fraction unbound (Homo sapiens): 0.002 | IC50 (Hepatitis C virus [1]): < 5 nM | bioavailability [5]: 35% | IC50 (Hepatitis C virus [2]): 3 nM | IC50 (Hepatitis C virus [3]): 1020 nM

CC(C)CCn1c(=O)c(C2=NS(=O)(=O)c3cc(CCN(C)C)ccc3N2)c(O)c2ccccc21
IC50 (Hepatitis C virus [1]): 685 nM

CC(C)CCn1c(=O)c(C2=NS(=O)(=O)c3cc(CC(=O)O)ccc3N2)c(O)c2ccccc21
IC50 (Hepatitis C virus [1]): 8 nM | IC50 (Hepatitis C virus [2]): 1600 nM

O=c1c(C2=Nc3ccccc3S(=O)(=O)N2)c(O)c2cc(F)ccc2n1CCC1CC1
IC50 (Cytochrome P450 2C9): 840 nM | half-life [4]: 3 h | bioavailability [5]: 44% | IC50 (Hepatitis C virus [2]): 38 nM | IC50 (Hepatitis C virus [3]): 24500 nM

NC(=O)COc1ccc2c(c1)S(=O)(=O)NC(c1c(O)c3cc(F)ccc3n(CCC3CC3)c1=O)=N2
IC50 (Cytochrome P450 2C9): 5400 nM | half-life [4]: 1 h | fraction unbound (Homo sapiens): 0.001 | IC50 (Hepatitis C virus [1]): < 5 nM | bioavailability [5]: 33% | IC50 (Hepatitis C virus [2]): 2 nM | IC50 (Hepatitis C virus [3]): 1480 nM

CC(C)CCn1c(=O)c(C2=NS(=O)(=O)c3cc(Cl)ccc3N2)c(O)c2ccccc21
IC50 (Hepatitis C virus [1]): 76 nM | IC50 (Hepatitis C virus [2]): 2320 nM | IC50 (Hepatitis C virus [3]): > 50000 nM

CC(C)CCn1c(=O)c(C2=NS(=O)(=O)c3cc(OCC#N)ccc3N2)c(O)c2ccccc21
IC50 (Hepatitis C virus [1]): 7 nM | IC50 (Hepatitis C virus [2]): 81 nM

CC(C)CCn1c(=O)c(C2=NS(=O)(=O)c3cc(O)ccc3N2)c(O)c2ccccc21
IC50 (Hepatitis C virus [1]): 30 nM | IC50 (Hepatitis C virus [2]): > 20000 nM

CC(=O)c1ccc2c(c1)S(=O)(=O)N=C(c1c(O)c3ccccc3n(CCC(C)C)c1=O)N2
IC50 (Hepatitis C virus [1]): 127 nM | IC50 (Hepatitis C virus [2]): 5200 nM

CC(C)(Oc1ccc2c(c1)S(=O)(=O)N=C(c1c(O)c3cc(F)ccc3n(CCC3CC3)c1=O)N2)C(=O)O
IC50 (Hepatitis C virus [1]): 22 nM | IC50 (Hepatitis C virus [2]): 3740 nM

COc1ccc2c(c1)S(=O)(=O)N=C(c1c(O)c3cc(F)ccc3n(CCC3CC3)c1=O)N2
IC50 (Hepatitis C virus [1]): 24 nM | IC50 (Hepatitis C virus [2]): 342 nM | IC50 (Hepatitis C virus [3]): > 50000 nM

N#CCOc1ccc2c(c1)S(=O)(=O)N=C(c1c(O)c3cc(F)ccc3n(CCC3CC3)c1=O)N2
IC50 (Hepatitis C virus [1]): < 5 nM | IC50 (Hepatitis C virus [2]): 8 nM | IC50 (Hepatitis C virus [3]): 2390 nM

CC(C)CCn1c(=O)c(C2=NS(=O)(=O)c3cc(CC(N)=O)ccc3N2)c(O)c2cc(F)ccc21
IC50 (Hepatitis C virus [1]): 18 nM | IC50 (Hepatitis C virus [2]): 13 nM | IC50 (Hepatitis C virus [3]): 3100 nM

CC(C)CCn1c(=O)c(C2=NS(=O)(=O)c3cc(N(C)C)ccc3N2)c(O)c2ccccc21
IC50 (Hepatitis C virus [1]): 142 nM | IC50 (Hepatitis C virus [2]): 1250 nM

CN(C)C(=O)COc1ccc2c(c1)S(=O)(=O)N=C(c1c(O)c3cc(F)ccc3n(CCC3CC3)c1=O)N2
IC50 (Hepatitis C virus [1]): 12 nM | IC50 (Hepatitis C virus [2]): 211 nM

O=C(O)COc1ccc2c(c1)S(=O)(=O)N=C(c1c(O)c3cc(F)ccc3n(CCC3CC3)c1=O)N2
IC50 (Hepatitis C virus [1]): < 5 nM | IC50 (Hepatitis C virus [2]): 2300 nM

COC(=O)Cc1ccc2c(c1)S(=O)(=O)N=C(c1c(O)c3ccccc3n(CCC(C)C)c1=O)N2
IC50 (Hepatitis C virus [1]): 23 nM | IC50 (Hepatitis C virus [2]): 815 nM

CC(C)CCn1c(=O)c(C2=NS(=O)(=O)c3cc(N)ccc3N2)c(O)c2ccccc21
IC50 (Hepatitis C virus [1]): 13 nM | IC50 (Hepatitis C virus [2]): 218 nM | IC50 (Hepatitis C virus [3]): 45000 nM

CC(C)CCn1c(=O)c(C2=NS(=O)(=O)c3cc(C(=O)N(C)C)ccc3N2)c(O)c2ccccc21
IC50 (Hepatitis C virus [1]): 102 nM | IC50 (Hepatitis C virus [2]): > 20000 nM

NC(=O)CCc1ccc2c(c1)S(=O)(=O)N=C(c1c(O)c3cc(F)ccc3n(CCC3CC3)c1=O)N2
IC50 (Hepatitis C virus [1]): 5 nM | IC50 (Hepatitis C virus [2]): 208 nM | IC50 (Hepatitis C virus [3]): > 50000 nM

CC(C)CCn1c(=O)c(C2=NS(=O)(=O)c3cc(CC#N)ccc3N2)c(O)c2cc(F)ccc21
IC50 (Hepatitis C virus [1]): 5 nM | IC50 (Hepatitis C virus [2]): 29 nM | IC50 (Hepatitis C virus [3]): 8000 nM

CC(C)CCn1c(=O)c(C2=NS(=O)(=O)c3cc(C(=O)O)ccc3N2)c(O)c2ccccc21
IC50 (Hepatitis C virus [1]): 45 nM | IC50 (Hepatitis C virus [2]): > 20000 nM

NC(=O)OCc1ccc2c(c1)S(=O)(=O)N=C(c1c(O)c3cc(F)ccc3n(CCC3CC3)c1=O)N2
IC50 (Hepatitis C virus [1]): 36 nM | IC50 (Hepatitis C virus [2]): 48 nM

O=c1c(C2=NS(=O)(=O)c3cc(CO)ccc3N2)c(O)c2cc(F)ccc2n1CCC1CC1
IC50 (Hepatitis C virus [1]): 17 nM | IC50 (Hepatitis C virus [2]): 233 nM

NC(=O)/C=C/c1ccc2c(c1)S(=O)(=O)N=C(c1c(O)c3cc(F)ccc3n(CCC3CC3)c1=O)N2
IC50 (Hepatitis C virus [1]): 202 nM | IC50 (Hepatitis C virus [2]): 39 nM | IC50 (Hepatitis C virus [3]): 50000 nM

CC(C)CCn1c(=O)c(C2=NS(=O)(=O)c3cc(CC(N)=O)ccc3N2)c(O)c2ccccc21
IC50 (Hepatitis C virus [1]): 6 nM | IC50 (Hepatitis C virus [2]): 15 nM | IC50 (Hepatitis C virus [3]): 2650 nM

CC(C)CCn1c(=O)c(C2=NS(=O)(=O)c3cc(C(N)=O)ccc3N2)c(O)c2ccccc21
IC50 (Hepatitis C virus [1]): 6 nM | IC50 (Hepatitis C virus [2]): 383 nM

CNC(=O)COc1ccc2c(c1)S(=O)(=O)N=C(c1c(O)c3cc(F)ccc3n(CCC3CC3)c1=O)N2
IC50 (Hepatitis C virus [1]): < 5 nM | IC50 (Hepatitis C virus [2]): 9 nM | IC50 (Hepatitis C virus [3]): 4740 nM

COc1ccc2c(c1)S(=O)(=O)N=C(c1c(O)c3ccccc3n(CCC(C)C)c1=O)N2
IC50 (Hepatitis C virus [1]): 55 nM | IC50 (Hepatitis C virus [2]): 1390 nM

CC(C)CCn1c(=O)c(C2=NS(=O)(=O)c3cc(C#N)ccc3N2)c(O)c2ccccc21
IC50 (Hepatitis C virus [1]): 57 nM | IC50 (Hepatitis C virus [2]): 486 nM

CC(C)CCn1c(=O)c(C2=NS(=O)(=O)c3cc(I)ccc3N2)c(O)c2ccccc21
IC50 (Hepatitis C virus [1]): > 10000 nM

CC(C)CCn1c(=O)c(C2=NS(=O)(=O)c3cc(CCN)ccc3N2)c(O)c2ccccc21
IC50 (Hepatitis C virus [1]): 142 nM | IC50 (Hepatitis C virus [2]): 568 nM

Cc1ccc2c(c1)S(=O)(=O)N=C(c1c(O)c3ccccc3n(CCC(C)C)c1=O)N2
IC50 (Hepatitis C virus [1]): 50 nM | IC50 (Hepatitis C virus [2]): 1780 nM

C[C@H](Oc1ccc2c(c1)S(=O)(=O)N=C(c1c(O)c3cc(F)ccc3n(CCC3CC3)c1=O)N2)C(N)=O
IC50 (Hepatitis C virus [1]): 12 nM | IC50 (Hepatitis C virus [2]): 4 nM | IC50 (Hepatitis C virus [3]): 50000 nM

CC(C)CCn1c(=O)c(C2=NS(=O)(=O)c3cc(F)ccc3N2)c(O)c2ccccc21
IC50 (Hepatitis C virus [1]): 26 nM | IC50 (Hepatitis C virus [2]): 334 nM
